Results on one molecule are retold here after patent US20090258030A1, “Materials and Methods for Improving Livestock Productivity” (priority 2006, published 2009).

Counter-ions that a name gives are not always drawn.

A short description of the assay: Intestine villi length and histology in pigs (Example 4). The format is in vivo, swine. As to conditions: 150 g of cysteamine hydrochloride per ton of feed; 30 days. On the procedure: 72 piglets were evenly divided into control group and Cysteamine group. The control group was treated with basal diet only, while the Cysteamine group was added with 150 g of cysteamine hydrochloride per ton of feed. The trial was lasted for 30 days.
Immediately after evisceration, tissue samples from the small intestine, large intestine, liver, and pancreas of pigs from each treatment group were collected. The collected samples were placed in properly labeled containers containing 10% buffered neutral formalin solution. The tissue samples were fixed for 78 hours before they were processed for routine histological examination using the paraffin embedding technique (well-known to the skilled artisan).
Sections approximately 5 to 6μ thick were cut from paraffin blocked tissues using Optical 820 Rotary Microtome (Scientific Instruments Division, Buffalo, N.Y.). Some sections were stained with hematoxylin and eosin (H & E), others with Alcian blue. H & E stained sections were used for the examination of the general histology of the intestinal tract while the Alcian blue stained sections were used for goblet cells identification. The stained sections were examined under various magnifications using a light microscope.
The number and length (μm) of villi in the small intestine were counted per microscopic field; the thickness of the tunica muscularis in the small and large intestine were measured using American Optical Micrometer (American Optical Company, Buffalo, N.Y.) calibrated in millimeters. The mucosal folds in the large intestine, the density of intestinal glands (crypts), the appearance of the surface epithelium were all observed. The general histology of the liver and pancreas were examined and compared between Cysteamine treated and non-Cysteamine treated groups. Goblet cell density in the Cysteamine treated and non-Cysteamine treated pigs was compared through visual examination using light microscope.

`NCCS` [Cysteamine Hydrochloride, cysteamine hydrochloride]: the “Villi Length, Small Intestines” value is given as 2.15 ± 0.09^A; the “goblet cells in the small and large intestine vs non-Cysteamine-treated” value was “noticeably larger and highly distended”; the “number and length of small intestinal villi vs non-Cysteamine treated” value was “more numerous and longer”.
